Ends that are not written are not given here.
Legend:
[1] = tested on: PC12 cells; assay: Effect of EDTA or MnCl2 pretreatment on cell adhesion and spreading; type: cell-based, rat; conditions: 5 mM EDTA or 1 mM MnCl2, 15 min; for cell adhesion to laminin after pretreatment / cell adhesion to rLG3 or Ln2-LG3-P2 after pretreatment: 1 h; for cell spreading to laminin after pretreatment / cell spreading to rLG3 or Ln2-LG3-P2 after pretreatment: 3 h
Procedure: PC12 cells were pretreated with either 5 mM EDTA or 1 mM MnCl2 for 15 min at 37° C. and seeded on plates coated with rLG3 or the Ln2-LG3-P2 peptide. To measure cell adhesion, PC12 cells were incubated on the coated plates for 1 h and absorbance was measured. To measure cell spreading, PC12 cells were incubated on the coated plates for 3 h and relative cell area was measured using Image-Pro Plus software.

[2] = tested on: PC12 cells; assay: Summary of cell adhesion, spreading, migration and neurite outgrowth promotive effects; type: cell-based, rat; conditions: summary statement of the description
Procedure: (§1) To measure cell adhesion, spreading, migration, and neurite outgrowth promotive activities of PC12 cells using the prepared synthetic peptides that are N- and C-terminal truncated or C-terminal added peptides of the Ln2-LG3-P2 peptide, peptides described in Table 1 were coated onto plates at 62.5 μg/mL and PC12 cells were seeded thereon.

[3] = tested on: PC12 cells; assay: Cell migration assay (transwell migration chambers); type: cell-based, rat; conditions: transwell filters coated with laminin 5 μg/mL, rLG proteins 25 μg/mL or peptides 62.5 μg/mL, 24 h
Procedure: Cell migration assays were performed using transwell migration chambers of 8 μm in pore size (Corning Inc., NY) as described in a paper published previously by the present inventors (Kim, J. M., Min, S. K., Kim, H., Kang, H. K., Jung, S. Y., Lee, S. H., Choi, Y., Roh, S., Jeong, D., and Min, B. M. (2007) Int. J. Mol. Med.).
The lower sides of transwell filters were coated with laminin (5 μg/mL) or rLG proteins (25 μg/mL) for 12 h at 4° C. The lower sides of transwell filters were blocked with 1% BSA in PBS for 1 h at 37° C. Cells were suspended at a density of 4×10^5 cells/mL in RPMI 1640 medium containing 0.5% FBS and 0.1% BSA. 100 μL of this suspension was seeded in the upper chamber of the transwell filter. Cells were allowed to migrate for 24 h at 37° C. and then fixed with 10% formalin for 15 min and stained with 0.5% crystal violet. Non-migrated cells in the upper chamber of transwell filters were removed with a cotton swab, viewed under a light microscope, and counted.
(§2) Specifically, to observe cell adhesion, spreading, migration, and neurite outgrowth promotion, the methods described in Experimental examples <2-1> to <2-3> were used and PC12 cells were cultured on plates coated with laminin (5 μg/mL), rLG3 (25 μg/mL), and rLG3-M1 (25 μg/mL) and observed. To observe cell adhesion, PC12 cells were incubated on the coated plates for 1 h and to observe cell spreading, PC12 cells were incubated on the coated plates for 3 h. To observe cell migration, PC12 cells were incubated on the coated plates for […].

[4] = tested on: PC12 cells; assay: Effect of calphostin C pretreatment on cell adhesion; type: cell-based, rat; conditions: PC12 cells, 0.05, 0.1, 0.5 μM, 15 min; 1 h
Procedure: PC12 cells were pretreated with 0.05 μM, 0.1 μM, and 0.5 μM of calphostin C for 15 min at 37° C. and then incubated on plates coated with rLG3 or the Ln2-LG3-P2 peptide for 1 h.

[5] = tested on: PC12 cells; conditions: at the indicated concentrations and duration of treatment
[6] = tested on: PC12 cells; assay: Cell spreading assay on coated plates (cell surface area); type: cell-based, rat; conditions: 3 h, laminin 5 μg/mL, rLG proteins 25 μg/mL, peptides 62.5 μg/mL
Procedure: To determine cell spreading assays, the cells cultured on plates coated with each rLG domain protein for 1 h or 3 h in Experimental example <2-1> were fixed with 10% formalin. Then, the fixed cells were stained with 0.05% crystal violet for 1 h and plates were gently washed with PBS three times. The surface area of cells was measured with Image-Pro plus software (Version 4.5; Media Cybernetics, Silver Spring, Md.).
(§3) The present inventors compared the cellular activities of Ln2-LG3-P2 peptide to scrambled peptide (SEQ ID NO:20, NWEIRCIPGNPF) of Ln2-LG3-P2 peptide and Ln2-LG3-P1 peptide to Ln2-LG3-P5 peptide at a concentration of 62.5 μg/mL where the cell adhesion activity was the maximum. […] PC12 cells were cultured on plates which were coated in the same way for 3 h in serum-free medium and the cell spreading was observed.
as §2, §1

[7] = tested on: PC12 cells; assay: Immunostaining of actin stress fibers and focal adhesions; type: cell-based, rat; conditions: PC12 cells on coated chamber slides, 3 h, serum-free
Procedure: Specifically, for immunostaining, PC12 cells were incubated on Lab-Tek chamber slides (Nalge Nunc International, Rochester, N.Y.) coated with laminin (5 μg/mL), rLG domain proteins (25 μg/mL), or Scrambled peptide (SP) (25 μg/well) in serum-free medium for 3 h at 37° C. Lab-Tek chamber slides were coated with BSA for the control. After rinsing with PBS, PC12 cells were fixed with 3.7% formalin for 20 min and permeabilized with 0.5% Triton X-100 for 5 min. PC12 cells were incubated with primary antibodies for 12 h at 4° C. The primary antibodies used were 1:500 anti-vinculin (Sigma-Aldrich 9131), or 1:300 rhodamin-phalloidin (Invitrogen R154) antibodies. After rinsing with PBS, PC12 cells were immunostained with FITC-conjugated anti-mouse IgG antibody (Jackson ImmunoResearch Laboratories, West Grove, Pa.) or rhodamin-conjugated anti-mouse IgG antibody (Santa Cruz Biotechnology) for 1 h at room temperature. After being washed three times with PBS, the stained PC12 cells were mounted and photographed using a confocal laser scanning microscope (FV300; Olympus, Japan).

[8] = tested on: PC12 cells; assay: Inhibition of cell adhesion to laminin by rLG3 / rLG3-M1 pretreatment; type: cell-based, rat; conditions: PC12 cells pretreated with 250 μg/mL; laminin 5 μg/mL
Procedure: In addition, PC12 cells were pretreated with rLG3 (250 or 500 μg/mL) or vehicle (phosphate buffer, pH 3.0) for 30 min and then seeded on plates coated with laminin (5 μg/mL) for 30 min in serum-free medium and cell adhesion was observed.

[9] = tested on: PC12 cells; assay: Neurite outgrowth assay; type: cell-based, rat; conditions: PC12 cells on coated plates, serum-free, 24 h + 72 h
Procedure: Laminin, rLG domain protein, and the peptide were coated onto plates and cells were seeded on the plates in serum-free medium and incubated for 24 h. After changing with serum-free medium again, cells were further cultured for 72 h and neurite outgrowth was examined.

[10] = tested on: PC12 cells; assay: Cell adhesion assay on coated plates (crystal violet, absorbance 570 nm); type: cell-based, rat
Procedure: The cell adhesion assay was performed as described in a paper published previously by the present inventors (Kim, J. M., et al, Exp. Cell Res, 2005).
Specifically, 24-well culture plates (Nunc, Denmark) were coated with 5 μg/mL human placental laminin (Sigma-Aldrich, St. Louis, Mo.) or 25 μg/mL rLG domain proteins for 12 h at 4° C. The peptides were also coated on the plates by drying for 12 h at room temperature. The substrate-coated plates were blocked with 1% heat-inactivated bovine serum albumin (BSA) in PBS for 1 h at 37° C. and then washed with PBS.
The cells were trypsinized with trypsin/EDTA and resuspended in serum-free culture medium. The cells were added at a density of 2×10^5 cells/500 μL to each plate and incubated in serum-free culture medium for 1 h at 37° C. After incubation, unattached cells were removed by rinsing twice with PBS. The attached cells were fixed with 10% formalin for 15 min and then stained with 0.5% crystal violet for 1 h. Plates were gently washed with distilled water three times and dissolved with 2% SDS for 5 min. Absorbance was measured at 570 nm using a microplate reader (BioRad).
First, PC12 cells were cultured on plates coated with varying amounts of five kinds of Ln2-PG3 peptides and then cell adhesion was observed. The peptides were coated in concentrations ranging from 0 to 125 μg/mL on plates by drying them for 12 h at room temperature.
as §3, §2, §1

[11] = tested on: PC12 cells; assay: Cell adhesion inhibition assay: peptide pretreatment, adhesion to rLG3-coated plates; type: cell-based, rat; conditions: PC12 cells pretreated with 500 μg/mL peptide; rLG3 25 μg/mL
Procedure: Specifically, PC12 cells were pretreated with the Ln2-LG3-P2 peptide in concentrations of 0, 0.2, 0.4, 0.6, 0.8, 1.0, or 1.2 μg/mL for 10 min at room temperature and then cultured on plates coated with rLG3 (25 μg/mL) for 1 h in serum-free medium.
PC12 cells were pretreated with 500 μg/mL of Ln2-LG3-P1, Ln2-LG3-P2, Ln2-LG3-P3, Ln2-LG3-P4, Ln2-LG3-P5 and SP (scramble peptide) (SEQ ID NO:20) for 10 min at room temperature and then cultured on plates coated with rLG3 (25 μg/mL) in serum-free medium. To observe cell adhesion, PC12 cells were incubated on the coated plates for 1 h and to observe cell spreading, PC12 cells were incubated on the coated plates for 3 h. To observe cell migration, cells were seed into the upper chamber of transwell filters coated with rLG3 (25 μg/mL) and cultured for 24 h. Cell migration was quantified by counting the number of cells that had migrated through the filter.
Specifically, PC12 cells were pretreated with Ln2-LG2-P2 (500 μg/mL) and Ln2-LG3-P2A (500 μg/mL) and then, cell adhesion was observed on plates coated with rLG3 (25 μg/mL).

O=C(O)CN(CCN(CC(=O)O)CC(=O)O)CC(=O)O [EDTA]
cell adhesion to laminin after pretreatment [1]: completely inhibited
cell adhesion to rLG3 or Ln2-LG3-P2 after pretreatment [1]: partially inhibited
cell spreading to laminin after pretreatment [1]: completely inhibited
cell spreading to rLG3 or Ln2-LG3-P2 after pretreatment [1]: partially inhibited

RNIPPFEGCIWNLVINSVPMDFAR (RNIPPFEGCIWNLVINSVPMDFAR-NH2) [Ln2-LG3-P2-AC1, C-terminal added Ln2-LG3-P2]
cell adhesion, spreading, migration, and neurite outgrowth promotive effects [2]: significantly excellent

PFEGCIWN (PFEGCIWN-NH2) [Ln2-LG3-P2-DN4, N-terminal truncated Ln2-LG3-P2]
cell migration [3]: did not show cell migration activity

calphostin C
cell adhesion activities to laminin, rLG3, and Ln2-LG3-P2 after inhibitor pretreatment [4]: significantly inhibited in a dose-dependent manner
cell growth [5]: did not affect cell growth

[Cl][Mn][Cl] [Mn^2+, MnCl2]
cell adhesion to laminin after pretreatment [1]: significantly enhanced
cell adhesion to rLG3 or Ln2-LG3-P2 after pretreatment [1]: significantly enhanced
cell spreading to laminin after pretreatment [1]: significantly enhanced
cell spreading to rLG3 or Ln2-LG3-P2 after pretreatment [1]: significantly enhanced

NWEIRCIPGNPF (NWEIRCIPGNPF-NH2) [scrambled peptide, scrambled peptide of Ln2-LG3-P2 peptide, negative control, reference compound]
cell spreading [6]: entirely ineffective
actin stress fiber formation and focal adhesions [7]: did not organize actin stress fibers
cell spreading (immunostaining) [7]: no effect on spreading
cell migration [3]: entirely ineffective

RNIPPFEGCIWNLVINSVPMDFARPVSFKNADIGRC (RNIPPFEGCIWNLVINSVPMDFARPVSFKNADIGRC-NH2; cysteine pairing not given here) [Ln2-LG3-P2-AC2, C-terminal added Ln2-LG3-P2]
cell adhesion, spreading, migration, and neurite outgrowth promotive effects [2]: significantly excellent

PPFEGCIWN (PPFEGCIWN-NH2) [Ln2-LG3-P2-DN3, N-terminal truncated Ln2-LG3-P2]
cell adhesion, spreading, migration, and neurite outgrowth promotive effects [2]: significantly excellent

rLG3-M1: mutant rLG3 protein, Arg in the Ln2-LG3-P2 site substituted with Ala (ANIPPFEGCIWN) (rLG3-M1)
cell spreading [6]: significantly reduced levels
inhibition of cell adhesion to laminin (in words) [8]: did not inhibit
neurite outgrowth [9]: significantly reduced levels
cell adhesion ([10]; PC12 cells on coated plates, 1 h, serum-free, laminin 5 μg/mL, rLG proteins 25 μg/mL, peptides 62.5 μg/mL (0 to 125 μg/mL in FIG. 2B)): significantly reduced levels
cell migration [3]: significantly reduced levels

Ln2-LG3-P2A: Ln2-LG3-P2 peptide synthesized by substituting Arg with Ala (ANIPPFEGCIWN-NH2)
inhibition of cell adhesion to rLG3 (in words) [11]: did not inhibit
cell adhesion compared to the control group Ln2-LG3-P2 ([10]; PC12 cells on plates coated with peptide (500 μg/mL, FIG. 3H)): significantly inhibited

Source: US9314510B2, “Human laminin α2 chain LG3 domain and active peptides promoting cell adhesion, spreading, migration, and neurite outgrowth” (SNU R&DB Foundation, priority 2011, dated 2016)
